The text below walks through data of patent US7652015B2, “Kinase inhibitors” (Eli Lilly and Company, priority 2006, dated 2010).

In the assay the test system is collagen induced arthritis. The assay can be described thus: Rat collagen induced arthritis efficacy model. In kind it is in vivo. The note with it: female Lewis rats, PO, bid for 14 days. As for the experimental part:
Female Lewis rats (≈190 g, Charles River Labs) are immunized with Bovine type II collagen (2 mg/mL) emulsified with an equal volume of adjuvant (aluminum hydroxide). are used. The rats are immunized with approximately […] of the emulsion intradermally on the back near the base of the tail. All animals are re-immunized 7 days later according to the same protocol. The rats begin to develop arthritis (characterized by swelling and redness of one or both ankles) from 12 to 14 days after the first immunization. The rats are equally distributed into five treatment groups at the first signs of arthritis and treatment is initiated with each rat dosed bid for 14 days.
Group 1 Vehicle (1% NaCarboxymethylcellulose+0.25% Tween 80) 1 mL, PO,
• Bid×14 days • Group 2 Test compound, 5 mg/kg, 1 mL, PO, Bid×14 • Group 3 Test compound, 15 mg/kg, 1 mL, PO, Bid×14 • Group 4 Test compound, 30 mg/kg, 1 mL, PO, Bid×14 • Group 5 Prednisolone 10 mg/kg, 1 mL, PO, qd×14 Ankle diameter is measured with calipers 5 days a week and recorded. Data is expressed as the area under the curve (AUC) generated from the composite inflammation scores and statistical analysis performed.

For `CS(=O)(=O)O.Cc1ccc(-n2nc(C(C)(C)C)cc2NC(=O)Nc2ccc(N3CCN(C(=O)c4c(F)cccc4F)CC3)nc2C)cc1` [Example 5, 1-(5-tert-Butyl-2-p-tolyl-2H-pyrazol-3-yl)-3-{6-[4-(2,6-difluoro-benzoyl)-piperazin-1-yl]-2-methyl-pyridin-3-yl}-urea methanesulfonate], the “histology TMED 50” value is given as 5 mg/kg bid.
